Test results taken from patent publication US20230312652A1, “NOVEL PEPTIDES AND USES THEREOF” (Aarhus Universitet, priority 2020, published 2023).
One block for each molecule: values may come before it. Where a SMILES comes first, the peptide text is derived from it.

How the values were obtained:
[1] = system: AMPK (T172) and CREB (S133); test: P1 activation of AMPK and CREB with or without CaMKK2-inhibitor STO-609 in cortical neurons; type: cell-based, mouse; details: 5 uM STO-609
Method: Mouse cortical neurons were isolated from p0 wild-type mice and seeded in a density of 250,000 per well in a 12-well tray. After 7 days in vitro the neurons were either pre-treated with STO-609 (5 uM) for 1 hour or with DMSO (control). After 1 hour, the neurons were stimulated with P1 or a scrambled peptide (Scr), with or without STO-609, in neurobasal A media and incubated at 37° C. and 5% CO2 for 20 minutes. Hereafter, the neurons were lysed in lysis buffer containing DTT and cOmplete cocktail protease inhibitor. Phosphorylation of AMPK (T172) and CREB (S133) was validated by western blotting and normalized to beta-actin.

[2] = system: GRN(+/-) cortical neurons; test: Survival of GRN-deficient cortical neurons, MTT assay; type: cell-based, mouse; details: 1 uM on DIV7, 9, 11, 13 and 15; MTT at DIV16
cortical neurons = test: Survival of wild-type cortical neurons, MTT assay; type: cell-based, mouse; details: for relative survival compared to control: 1 uM on DIV7, DIV9 and DIV11, MTT at DIV12
Method: Cortical neurons were isolated from p0 wild-type mice and seeded in a density of 50.000 in a 96-well plate pre-coated with poly-L and laminin and incubated at 37° C. in a 5% C02 atmosphere. At 7 days in vitro (DIV7) the neurons were treated by changing half the media with neurobasal A with B27 containing the peptides (P2, P4 or P6) to give a finale concentration of 1 uM and further incubated. The cortical neurons were treated in a likewise manner on DIV9 and DIV11. At DIV12 half the media was removed and 3-(4,5-dimethylthiazole-2-yl)-2,5-diphenyltetrazolium bromide (MTT) was added to the media to give a finale concentration of 0.5 mg/mL. MTT is reduced by mitochondrial enzymes in active cells to an insoluble product called formazan, which can be detected by colorimetry. Thus, the colour generated reflects activity and viable cells in the culture. The neurons were incubated for 4 hours with MTT and thereafter lysed in a 50% EtOH and 50% DMSO solution. To assure proper mixing of formazan, the plate was left to shake for 30 minutes before being measured at 570 nm and 650 nm. Student's t-test was used for statistical analysis.
Further, a drug-dose response on survival for peptide P1 was assessed in a similar manner.

CREB [3] = test: CREB activation (phosphorylation on serine 133) in wild-type cortical neurons, western blotting; type: cell-based, mouse; details: 20 minutes, 7 days in vitro
Method: (§1) To assess the ability of peptides P1, P2 and P6, respectively, to activate transcription factor CREB, cortical neurons were isolated from p0 wild-type mice and seeded in a density of 500.000 per well. After 7 days in vitro the neurons were stimulated with the different peptide variants at 1 uM in neurobasal A media and incubated at 37° C. and 5% C02 for 20 minutes. Hereafter, the neurons were lysed in lysis buffer containing DTT and cOmplete cocktail protease inhibitor and subsequently sonicated to disrupt the nuclear membrane. The phosphorylation of CREB on serine 133 was validated by western blotting normalized to beta-actin. As control, cells were stimulated with a scrambled peptide (Scr). Student's t-test was used for statistical analysis.
as §1, with “The” for “To assess the”, “peptide P1” for “peptides P1, P2”, “a linear peptide analog of P1 with acetylated N- and amidated C-terminals (referred to as LP1)” for “P6, respectively,”, “CREB was assessed. Cortical” for “CREB, cortical”, “20 nM” for “1 uM”, “CO2” for “C02”

[4] = system: spared nerve injury (SNI) model; test: Spared nerve injury mouse model, acute, von Frey test; type: in vivo; details: single SC dose 17 days post-SNI operation
Method: (§2) To assess the effect of peptide P3 on neuropathic pain, the spared nerve injury (SNI) model was used. The threshold for mechanical pain response is determined by testing with von Frey filaments of increasing bending force, which are repetitively pressed against the lateral area of the paw. Two baseline measurements were made before SNI operation. In brief, the common peroneal and tibial branches of the sciatic nerve were ligated and cut distally to the ligation, just distal to the branching of the sural nerve, which was left untouched. The mechanical allodynia was subsequently assessed with von Frey testing 17 days post-surgery. […] Student's t-test was used for statistical analysis.

[5] = system: spared nerve injury (SNI) model; test: Spared nerve injury mouse model, daily dosing, von Frey test; type: in vivo; details: single SC dose daily for 8 days from 1 day post-SNI operation
Method: as §2
Mice, surgery and von Frey testing was performed as in Example 28.
Student's t-test was used for statistical analysis.

SV2A = SV2A levels in wild-type neurons, western blotting; type: cell-based, mouse; details: 0.1 uM or 1 uM from DIV8 for 3 days
Method: Hippocampal neurons were isolated from p0 wild-type mice and seeded in a density of 250,000 per well in 12-well trays precoated with poly-L and laminin. At DIV8 the neurons were treated with 0.1 uM or 1 uM P6 for 3 days. The neurons were lysed in RIPA buffer containing cOmplete and phosSTOP and SV2A levels were validated by western blotting, normalized to beta-actin.

hippocampal neurons = test: Neuronal branching in wild-type hippocampal neurons; type: cell-based, mouse; details: DIV1 to DIV4
Method: Hippocampal neurons were isolated from p0 wild-type mice and seeded in a density of 10.000 per well in 24-well trays containing poly-D and laminin coated coverslips. At DIV1 the neurons were treated with 0.1 uM or 1 uM P6. BDNF (1 nM) was used as a positive control. At DIV4 the neurons were fixed and immunostained for MAP2, a marker of dendrites. Pictures of MAP2 were taken of neurites with 20 neurons pr. coverslip. The neurites may not be in contact with other neurites from other neurons. The pictures were analysed in Imaris Software. The number branches were counted manually.

CREB and AMPK = CREB and AMPK activation in brain of wild-type mice after subcutaneous injection; type: in vivo, mouse; details: 3.6 mg/kg SC, separate study
Method: To assess the subcutaneous administration route of peptide P1, 8 weeks old wild-type mice were subcutaneously injected with different doses ranging between 0.13 to 26 mg/kg of peptide P1 dissolved in 4.38 mM L-His, 140 mM NaCl, 0.2% Tween-20 and 1500 IU hyaluronidase (pH 6.15). Likewise, was an earlier lead peptide constituting a linear version of P1 attached to a cell-penetrating moiety (P9, SEQ ID NO: 9), tested for its ability to activate CREB in both striatum and hippocampus (in a separate study) following subcutaneous injection with 3.6 mg/kg. 2 hours after injection the mice were sacrificed by cervical dislocation and striatal tissue was isolated by dissection and snap frozen in liquid nitrogen and stored at −80° C. until further use. To assess the activation of CREB and AMPK, the tissue was lysed using a TissueLyser in lysis buffer containing cOmplete and DTT. The samples were subsequently homogenized by sonication. The phosphorylation of CREB on serine 133 and threonine 172 on AMPK was subsequently validated by western blotting and the levels of were normalized to beta-actin. Student's t-test was used for statistical analysis.

CREB [6] = test: CREB activation in striatum and hippocampus of wild-type mice after IV injection; type: in vivo, mouse; details: 0.26 mg/kg IV, 1 hour after injection
Method: To assess this, 8 weeks old wild-type mice were injected intravenously with either 0.26 mg/kg of peptide P1 or LP1 dissolved in saline. 1 hour after the injection, the mice were sacrificed by cervical dislocation and striatal tissue was isolated by dissection and immediately lysed using a TissueLyser in lysis buffer containing cOmplete and DTT. The samples were subsequently homogenized by sonication. The phosphorylation of CREB on serine 133 was subsequently validated by western blotting. The levels of phosphorylated CREB were normalized to the corresponding beta-actin levels. Student's t-test was used for statistical analysis.

[7] = target: mouse plasma (plasma proteins); test: plasma binding: 2 uM P1 in plasma, ultracentrifugation, LCMS
[8] = target: human plasma (plasma proteins); test: plasma binding: 2 uM P1 in plasma, ultracentrifugation, LCMS; % Bound=100*(1-F/T4.5)
mouse brain homogenate = test: brain homogenate binding: 2 uM P1, ultracentrifugation, LCMS

Molecule: O=C(O)c1ccc2c3c1cccc3c(=O)n1c3ccccc3nc21 [STO-609, reference compound]
AMPK phosphorylation following STO-609-treatment [1]: inhibition of AMPK

Molecule: [MTDPVDHDEDV] [Peptide P2]
relative survival compared to control [2]: increased the relative survival | relative survival compared to control (cortical neurons): increased the relative survival | activation of CREB (phosphorylation on serine 133) compared to scrambled peptide (CREB [3]; 1 uM): markedly activated CREB

Molecule: [MTAPVAHAEDV] [Peptide P3]
neuropathic pain, von Frey test [4]: attenuated the pain in an acute manner | neuropathic pain, von Frey test [5]: continuously reduced the neuropathic pain

Molecule: [MIGSVEQEENA] [Peptide P6]
SV2A levels (SV2A): increased SV2A levels | relative survival compared to control [2]: increased the relative survival | relative survival compared to control (cortical neurons): increased the relative survival | activation of CREB (phosphorylation on serine 133) compared to scrambled peptide (CREB [3]; 1 uM): markedly activated CREB | neurite branching (hippocampal neurons; 0.1 uM): increased neurite branching similar to BDNF | neurite branching (hippocampal neurons; 1 uM): increased neurite branching similar to BDNF

Molecule: [MIEPVEHEESR] [Peptide P4]
relative survival compared to control [2]: increased the relative survival | relative survival compared to control (cortical neurons): increased the relative survival

Molecule: YARAAARNARAEKEQEMTDPVDHDEDVQGAVQ (Linear peptide) [Peptide P9, reference compound]
pCREB in hippocampus (CREB and AMPK): not able to notably activate CREB | pCREB in striatum (CREB and AMPK): not able to notably activate CREB

Molecule: CSCC[C@H](NC(C)=O)C(=O)N[C@H](C(=O)N[C@@H](CCC(=O)O)C(=O)N1CCC[C@H]1C(=O)N[C@H](C(=O)N[C@@H](CCC(=O)O)C(=O)N[C@@H](Cc1c[nH]cn1)C(=O)N[C@@H](CCC(=O)O)C(=O)N[C@@H](CCC(=O)O)C(=O)N[C@@H](CC(=O)O)C(=O)N[C@H](C(N)=O)C(C)C)C(C)C)[C@@H](C)O [LP1, Ac-MTEPVEHEEDV—NH2, reference compound] (Ac-MTEPVEHEEDV-NH2)
activation of CREB (phosphorylation on serine 133) compared to scrambled peptide (CREB [3]; 20 nM): activated CREB to a lesser extent | pCREB (S133) in hippocampus (CREB [6]): increase phosphorylated CREB | pCREB (S133) in striatum (CREB [6]): increase phosphorylated CREB

unbound in plasma [7]: > 75% | plasma binding [8]: 20% | brain homogenate binding (mouse brain homogenate): < 20%
B1: Cyclic peptide P1 (peptide)
peptide: MTEPVEHEEDV
modifications: Cyclic (backbone): head-to-tail cyclized via the M amino acid residue in position 1 and the V amino acid residue in position 11

B2: BDNF (protein, UniProt P23560 19-247, looked up)
Neurotrophic factor BDNF …: APMKEANIRGQGGLAYPGVRTHGTLESVNGPKAGSRGLTSLADTFEHVIEELLDEDQKVRPNEENNKDADLYTSRVMLSSQVPLEPPLLFLLEEYKNYLDAANMSMRVRRHSDPARRGELSVCDSISEWVTAADKKTAVDMSGGTVTVLEKVPVSKGQLKQYFYETKCNPMGYTKEGCRGIDKRHWNSQCRTTQSYVRALTMDSKKRIGWRFIRIDTSCVCTLTIKRGR
notes: neurotrophic factor used as a positive control
survival in drug-dose response study (cortical neurons; BDNF as positive control): increased survival to a lesser extent than peptide P1
